Test results from patent publication US7144894B2, “Sulfonamide bicyclic compounds” (Bristol-Myers Squibb Company, priority 2004, dated 2006).
Read-outs that look alike come from different tables or passages of the source.

Key:
[1] = tested on: β-amyloid peptide formation; test: Inhibition of β-amyloid peptide formation in human H4 cells; format: cell-based; details: H4 cells stably transfected to overexpress HPLAP-APP fusion protein, 18 hrs incubation, Aβ in supernatant, read-out: Binding affinity (IC50 in nM)
Experimental: γ-Secretase inhibitors were also evaluated using in vitro assays based on the inhibition of Aβ formation in cultured cells. Cultured human cell lines, such as HEK293 and H4 cells, which express APP and γ-secretase activity or transfected derivative cell lines that overexpress wild-type APP, mutant APP, or APP fusion proteins will secrete Aβ peptides into the culture media that can be quantified as previously outlined (Dovey H. et al., J. Neurochem. 2001, 76, 173). The incubation of these cultured cells with γ-secretase inhibitors decreases the production of Aβ peptides. For instance, H4 cells stably transfected to overexpress the HPLAP-APP fusion protein described above were grown as above, detached, and adjusted to 2×10^5 cells/ml. 100 μl of the resulting suspension was then added to each well of a 96-well plate. After 4 hrs, the media was removed and replaced with 100 μl serum-free media containing various dilutions of the test compound. Plates were then incubated for 18 hrs at 37° C. and a 100 μl aliquot of the tissue culture supernatant was removed for determination of Aβ levels using time-resolved fluorescence of the homogenous sample as outlined above. The extent of Aβ inhibition was used to calculate the IC50 value for the test compound.
Representative compounds were evaluated in the above assay and were determined to inhibit Aβ formation.

HPLC log P = format: physicochemical; details: pH 7.0

IC50 ([1]; Homo sapiens) [nM] | IC50 [1] [nM] | chromatographic logP (HPLC log P) | Compound
0.25 to 50 | – | – | CC(C)C[C@H](C(N)=O)N(Cc1ccc2c(c1)CCN2C)S(=O)(=O)c1ccc(Cl)cc1 [Example 10, 2R-(N-1-methylindolin-5-yl-N-4-chlorophenylsulfonyl)methylamino-4-methyl-pentanamide]
0.25 to 50 | – | 3.81 | CC(C)C[C@H](C(N)=O)N(Cc1ccc2[nH]ccc2c1)S(=O)(=O)c1ccc(Cl)cc1 [Example 2, 2R-(N-indol-5-ylmethyl-N-4-chlorophenylsulfonyl)amino-4-methyl-pentanamide]
– | 0.25 to 50 | – | CC(C)C[C@H](C(N)=O)N(Cc1ccc2c(c1)CCN(Cc1ccccc1)C2=O)S(=O)(=O)c1ccc(Cl)cc1 [Example 17, 2R-(N-(1-oxo-2-benzyl-1,2,3,4-tetrahydroisoquinolin-6-ylmethylamino)-N-4-chlorophenylsulfonyl)amino-4-methyl-pentanamide]
– | 0.25 to 50 | – | CC(C)C[C@H](C(N)=O)N(Cc1ccc2c(c1)CCN(CC1CCC1)C2=O)S(=O)(=O)c1ccc(Cl)cc1 [Example 20, 2R-(N-(1-oxo-2-cyclobutylmethyl-1,2,3,4-tetrahydroisoquinolin-6-ylmethylamino)-N-4-chlorophenylsulfonyl)amino-4-methyl-pentanamide]
0.25 to 50 | – | – | CCN1CCc2cc(CN([C@H](CC3CC3)C(N)=O)S(=O)(=O)c3ccc(Cl)cc3)ccc2C1=O [Example 21, 2R-(N-(1-oxo-2-ethyl-1,2,3,4-tetrahydroisoquinolin-6-ylmethylamino)-N-4-chlorophenylsulfonyl)amino-3-cyclopropyl-propanamide]
0.25 to 50 | – | – | CCN1CCc2cc(CN([C@H](CC(C)C)C(N)=O)S(=O)(=O)c3ccc(Cl)cc3)ccc2C1=O [Example 6, 2R-(N-(1-oxo-2-ethyl-1,2,3,4-tetrahydroisoquinolin-6-ylmethylamino)-N-4-chlorophenylsulfonyl)amino-4-methyl-pentanamide]
0.25 to 50 | – | – | CC(C)C[C@H](C(N)=O)N(Cc1ccc2c(c1)CCN2C(=O)C1CCCC1)S(=O)(=O)c1ccc(Cl)cc1 [Example 12, 2R-(N-1-cyclopentylcarbonylindolin-5-yl-N-4-chlorophenylsulfonyl)methylamino-4-methyl-pentanamide]
– | 0.25 to 50 | – | COCCN1CCc2cc(CN([C@H](CC(C)C)C(N)=O)S(=O)(=O)c3ccc(Cl)cc3)ccc2C1=O [Example 18, 2R-(N-(1-oxo-2-(2-methoxyethyl)-1,2,3,4-tetrahydroisoquinolin-6-ylmethylamino)-N-4-chlorophenylsulonyl)amino-4-methyl-pentanamide]
0.25 to 50 | – | – | CCN1CCc2cc(CN([C@H](CC(F)F)C(N)=O)S(=O)(=O)c3ccc(Cl)cc3)ccc2C1=O [Example 22, 2R-(N-(1-oxo-2-ethyl-1,2,3,4-tetrahydroisoquinolin-6-ylmethylamino)-N-4-chlorophenylsulfonyl)amino-4,4-difluorobutanamide]
– | 0.25 to 50 | – | CC(C)C[C@H](C(N)=O)N(Cc1ccc2c(c1)CCN(Cc1ccccn1)C2=O)S(=O)(=O)c1ccc(Cl)cc1 [Example 13, 2R-(N-(1-oxo-2-(2-pyridylmethyl)-1,2,3,4-tetrahydroisoquinolin-6-ylmethylamino)-N-4-chlorophenylsulonyl)amino-4-methyl-pentanamide]
– | 0.25 to 50 | – | CC(C)C[C@H](C(N)=O)N(Cc1ccc2c(c1)CCN(C)C2=O)S(=O)(=O)c1ccc(Cl)cc1 [Example 14, 2R-(N-(1-oxo-2-methyl-1,2,3,4-tetrahydroisoquinolin-6-ylmethylamino)-N-4-chlorophenylsulfonyl)amino-4-methyl-pentanamide]
– | 0.25 to 50 | – | CCCN1CCc2cc(CN([C@H](CC(C)C)C(N)=O)S(=O)(=O)c3ccc(Cl)cc3)ccc2C1=O [Example 15, 2R-(N-(1-oxo-2-propyl-1,2,3,4-tetrahydroisoquinolin-6-ylmethylamino)-N-4-chlorophenylsulfonyl)amino-4-methyl-pentanamide]
50 to 500 | – | – | CC(C)C[C@H](C(N)=O)N(Cc1ccc2c(c1)CCC(=O)N2)S(=O)(=O)c1ccc(Cl)cc1 [Example 7, 2R-(N-(2-oxo-1,2,3,4-tetrahydroquinolin-6-ylmethyl)-N-4-chlorophenylsulfonyl)amino-4-methyl-pentanamide]
0.25 to 50 | – | – | Cc1cc2cc(CN([C@H](CC(C)C)C(N)=O)S(=O)(=O)c3ccc(Cl)cc3)ccc2n1C(=O)OC(C)(C)C [Example 3, 2R-(N-(1-t-Butyloxycarbonyl-2-methylindol-5-ylmethyl)-N-4-chlorophenylsulfonyl)amino-4-methyl-pentanamide]
0.25 to 50 | – | – | CC(C)C[C@H](C(N)=O)N(Cc1ccc2c(c1)CCNC2=O)S(=O)(=O)c1ccc(Cl)cc1 [Example 5, 2R-(N-(1-oxo-1,2,3,4-tetrahydroisoquinolin-6-ylmethyl)-N-4-chlorophenylsulfonyl)amino-4-methyl-pentanamide]
– | 0.25 to 50 | – | CC(C)C[C@H](C(N)=O)N(Cc1ccc2c(c1)CCN(CC1CC1)C2=O)S(=O)(=O)c1ccc(Cl)cc1 [Example 19, 2R-(N-(1-oxo-2-cyclopropylmethyl-1,2,3,4-tetrahydroisoquinolin-6-ylmethylamino)-N-4-chlorophenylsulfonyl)amino-4-methyl-pentanamide]
– | 0.25 to 50 | – | CCCCN1CCc2cc(CN([C@H](CC(C)C)C(N)=O)S(=O)(=O)c3ccc(Cl)cc3)ccc2C1=O [Example 16, 2R-(N-(1-oxo-2-butyl-1,2,3,4-tetrahydroisoquinolin-6-ylmethylamino)-N-4-chlorophenylsulfonyl)amino-4-methyl-pentanamide]
0.25 to 50 | – | 4.21 | Cc1cc2cc(CN([C@H](CC(C)C)C(N)=O)S(=O)(=O)c3ccc(Cl)cc3)ccc2[nH]1 [Example 4, 2R-(N-(2-methylindol-5-ylmethyl)-N-4-chlorophenylsulfonyl)amino-4-methyl-pentanamide]
0.25 to 50 | – | – | CC(C)C[C@H](C(N)=O)N(Cc1ccc2c(c1)CCN2)S(=O)(=O)c1ccc(Cl)cc1 [Example 9, 2R-(N-indolin-5-yl-N-4-chlorophenylsulfonyl)methylamino-4-methyl-pentanamide]

Compound | IC50 ([1]; Homo sapiens) [nM] | IC50 [1] [nM] | chromatographic logP (HPLC log P)
CC(C)N1CCc2cc(CN([C@H](CC3CC3)C(N)=O)S(=O)(=O)c3ccc(Cl)cc3)ccc2C1=O [Example 23, 2R-(N-(1-oxo-2-(2-propyl)-1,2,3,4-tetrahydroisoquinolin-6-ylmethylamino)-N-4-chlorophenylsulfonyl)amino-3-cyclopropyl-propanamide] | – | 0.25 to 50 | –
CCC(CC)N1CCc2cc(CN([C@H](CC3CC3)C(N)=O)S(=O)(=O)c3ccc(Cl)cc3)ccc2C1=O [Example 24, 2R-(N-(1-oxo-2-(3-pentyl)-1,2,3,4-tetrahydroisoquinolin-6-ylmethylamino)-N-4-chlorophenylsulfonyl)amino-3-cyclopropyl-propanamide] | – | 0.25 to 50 | –
